Results: patent publication US20100173914A1, “PHARMACEUTICALS, COMPOSITIONS AND METHODS OF MAKING AND USING THE SAME” (priority 2007, published 2010)

Assays:
[1] = cited from earlier work
[2] = cited from earlier work; remark: listed apart in the source
[3] = target: T1, human adenosine A2A receptors (Homo sapiens, UniProt P29274); experiment: Adenosine receptor binding: binding affinities at hA2A receptors ([3H]CGS-21680 displacement); details: for Ki: displacement of [3H]CGS-21680, HEK-293 cell membranes; for A2A/A1 selectivity ratio (Ki A2A/Ki A1): ratio of measured Ki values at hA2A and hA1
T1 construct: host or cells: HEK-293
T1 sequence (P29274 whole entry): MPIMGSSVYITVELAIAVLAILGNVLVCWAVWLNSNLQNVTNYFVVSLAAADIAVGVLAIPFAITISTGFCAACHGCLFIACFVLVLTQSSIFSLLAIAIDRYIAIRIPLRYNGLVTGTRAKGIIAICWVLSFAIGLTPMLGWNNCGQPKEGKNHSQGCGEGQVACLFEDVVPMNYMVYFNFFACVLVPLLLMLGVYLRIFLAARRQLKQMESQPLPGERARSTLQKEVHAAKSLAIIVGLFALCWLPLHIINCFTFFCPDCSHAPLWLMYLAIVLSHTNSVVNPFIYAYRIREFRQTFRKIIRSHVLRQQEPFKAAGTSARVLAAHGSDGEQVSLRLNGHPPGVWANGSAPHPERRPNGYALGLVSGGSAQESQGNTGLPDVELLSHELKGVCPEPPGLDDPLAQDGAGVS
Description: Adenosine Receptor Binding: Binding Affinities at hA2A Receptors
The compounds were examined in an assay measuring in vitro binding to human adenosine A2A receptors by determining the displacement of the adenosine A2A receptor selective radioligand 4-[2-[[6-Amino-9-(N-ethyl-β-D-ribofuranuronamidosyl)-9H-purin-2-yl]amino]ethyl]benzenepropanoic acid hydrochloride ([^3H]CGS-21680) using standard techniques. See, for example, Jarvis et al., J Pharmacol Exp Ther., 251(3):888-93, which is incorporated by reference in its entirety.
Frozen HEK-293 cells were homogenized in 65 mL of 50 mM Tris HCl buffer (pH 7.5) containing 10 mM MgCl2, and 0.1 IU/mL adenosine deaminase per pellet using a Ultra-Turrax homogenizer. The resultant homogenate was kept for immediate use in the binding assay.
(§1) Binding assays were performed in a total volume of 250 μL, containing [^3H]-CGS21680 (20.0 nM), membranes and additional drugs. Total binding was determined using drug dilution buffer (50 mM Tris-HCl pH 7.5, 10 mM MgCl2, 5% DMSO). Non-specific binding was determined using 300 μM CHA. Following incubation for 90 minutes at 21° C., assays were terminated by rapid filtration with GF/B filters (presoaked in 0.1% (w/v) polyethylenimine) using a Canberra Packard filtermate 196, washed 3 times with ice-cold Tris-HCl (pH 7.4). Filters were left to dry overnight, and Microscint-0 scintillation fluid was then added to the filters. The filters were then left for at least 2 hours before the radioactivity was assessed using a Canberra Packard TopCount microplate scintillation counter.
To determine the free ligand concentration, three vials were counted with 25 μL of [^3H]CGS21680 containing 4 mL of Ultima-Gold MV scintillant on a Beckman LS6500 multi-purpose scintillation counter.
(§2) Data was analysed using a 4 parameter logistical equation and non-linear regression which yields affinity constants (pIC50), and slope parameters:
where E is the quantity of binding and [A] is the competitor concentration. The Ki is then determined using the Cheng-Prusoff equation: […]

[4] = target: T2, human adenosine A1 receptors (Homo sapiens, UniProt P30542); experiment: Adenosine receptor binding: binding affinities at hA1 receptors ([3H]DPCPX displacement); details: displacement of [3H]DPCPX, membranes of CHO-K1 cells transfected with human A1
T2 construct: expressed in transfected cells; host or cells: CHO-K1
T2 sequence (P30542 1-326): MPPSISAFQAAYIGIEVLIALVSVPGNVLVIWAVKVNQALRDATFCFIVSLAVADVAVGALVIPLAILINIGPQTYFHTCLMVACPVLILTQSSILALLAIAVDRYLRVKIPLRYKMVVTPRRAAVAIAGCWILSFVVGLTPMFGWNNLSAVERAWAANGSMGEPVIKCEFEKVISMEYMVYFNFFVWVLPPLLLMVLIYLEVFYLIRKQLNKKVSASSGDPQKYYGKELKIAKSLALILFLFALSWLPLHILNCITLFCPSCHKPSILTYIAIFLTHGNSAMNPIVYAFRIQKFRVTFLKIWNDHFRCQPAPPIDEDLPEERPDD
Description: Adenosine Receptor Binding: Binding Affinities at hA1 Receptors
The compounds were examined in an assay measuring in vitro binding to human adenosine A1 receptors by determining the displacement of the adenosine A1 receptor selective radioligand 8-Cyclopentyl-1,3-dipropylxanthine ([^3H]DPCPX) using standard techniques. See, for example, Lohse M J, et al., (1987), 8-Cyclopentyl-1,3-dipropylxanthine (DPCPX)—a selective high affinity antagonist radioligand for A1 adenosine receptors. Naunyn Schmiedebergs Arch Pharmacol., 336(2):204-10, which is incorporated by reference in its entirety.
as §1, with “Frozen CHO-K1 cells (transfected with a human adenosine A1 recepter expression vector) were homogenized in 130 mL of 50 mM Tris HCl buffer (pH 7.5) containing 10 mM MgCl2, and 0.1 IU/mL adenosine deaminase per pellet using a Ultra-Turrax homogeniser. The resultant homogenate was kept for immediate use in the binding. Binding” for “Binding”, “[^3H]-DPCPX (3.0” for “[^3H]-CGS21680 (20.0”, “pH:7.5,” for “pH 7.5,”, “N6-cyclohexyladenosine (CHA).” for “CHA.”
To determine the free ligand concentration, three vials were counted with 25 μL of [^3H]DPCPX containing 4 mL of Ultima-Gold MV scintillant on a Beckman LS6500 multi-purpose scintillation counter.
as §2
where E is the quantity of binding and [A] is the competitor concentration. The K, is then determined using the Cheng-Prusoff equation: […]

SMILES: Cn1c(=O)c2[nH]cnc2n(C)c1=O [Theophylline, 1,3-dimethylxanthine]
- serum theophylline levels ([1]; 150 mg/day slow release oral, after one week, Parkinsonian patients): 4.44 mg/L
- mean objective disability scores ([1]; 15 Parkinsonian patients, up to 12 weeks, 150 mg/day): significant improvements
- patients reporting moderate or marked subjective improvement ([1]; of 15 Parkinsonian patients, up to 12 weeks, 150 mg/day): 11

SMILES: CCCn1c(=O)c2c(nc(/C=C/c3ccc(OC)c(OC)c3)n2C)n(CCC)c1=O [KF 17837, E-8-(3,4-dimethoxystyryl)-1,3-dipropyl-7-methylxanthine]
- anticataleptic effects of a subthreshold dose of L-DOPA plus benserazide ([2]; in vivo): potentiated
- catalepsy induced by haloperidol and reserpine ([2]; in vivo): reduced
- cataleptic responses induced by intracerebroventricular CGS 21680 ([2]; oral administration): significantly ameliorated

SMILES: Nc1nc(-c2ccco2)c2nnn(Cc3cccc(NS(=O)(=O)O)c3)c2n1 [3-[(5-amino-7-(furan-2-yl)-3H-[1,2,3]triazolo[4,5-d]pyrimidin-3-yl)methyl]-phenylsulfamic acid]
- Ki [3]: 100 to 1000 nM
- A2A/A1 selectivity ratio (Ki A2A/Ki A1) [3]: H (more than 20)
- Ki [4]: 1000 to 10000 nM

SMILES: Cc1ccc(-c2nc(N)nc3c2nnn3Cc2ccc(NS(=O)(=O)O)c(C)c2)o1 [4-[(5-amino-7-(5-methylfuran-2-yl)-3H-[1,2,3]triazolo[4,5-d]pyrimidin-3-yl)methyl]-2-methylphenylsulfamic acid]
- Ki [3]: ≤ 100 nM
- A2A/A1 selectivity ratio (Ki A2A/Ki A1) [3]: H (more than 20)
- Ki [4]: 100 to 1000 nM

SMILES: Cc1ccc(Cn2nnc3c(-c4ccccc4)nc(N)nc32)cc1NS(=O)(=O)O [5-[(5-amino-7-phenyl-3H-[1,2,3,]triazolo[4,5-d]pyrimidin-3-yl)methyl]-2-methylphenylsulfamic acid]
- Ki [3]: ≤ 100 nM
- A2A/A1 selectivity ratio (Ki A2A/Ki A1) [3]: G (10 to 20)
- Ki [4]: 100 to 1000 nM

SMILES: Nc1nc(-c2cccs2)c2nnn(Cc3ccc(NS(=O)(=O)O)cc3)c2n1 [4-[(5-amino-7-(thiophen-2-yl)-3H-[1,2,3]triazolo[4,5-d]pyrimidin-3-yl)methyl]phenylsulfamic acid]
- Ki [3]: 100 to 1000 nM
- A2A/A1 selectivity ratio (Ki A2A/Ki A1) [3]: G (10 to 20)
- Ki [4]: 1000 to 10000 nM

SMILES: COc1cc(Cn2nnc3c(-c4ccco4)nc(N)nc32)ccc1NS(=O)(=O)O [4-[(5-amino-7-(furan-2-yl)-3H-[1,2,3]triazolo[4,5-d]pyrimidin-3-yl)methyl]-2-methoxyphenylsulfamic acid]
- Ki [3]: 1000 to 10000 nM
- A2A/A1 selectivity ratio (Ki A2A/Ki A1) [3]: G (10 to 20)
- Ki [4]: > 10000 nM

SMILES: Cc1ccc(-c2nc(N)nc3c2nnn3Cc2ccc(NS(=O)(=O)O)cc2)o1 [4-[(5-amino-7-(5-methylfuran-2-yl)-3H-[1,2,3]triazolo[4,5-d]pyrimidin-3-yl)methyl]phenylsulfamic acid]
- Ki [3]: ≤ 100 nM
- A2A/A1 selectivity ratio (Ki A2A/Ki A1) [3]: H (more than 20)
- Ki [4]: 1000 to 10000 nM

SMILES: Cc1ccc(-c2nc(N)nc3c2nnn3Cc2ccc(C)c(NS(=O)(=O)O)c2)o1 [5-[(5-amino-7-(5-methylfuran-2-yl)-3H-[1,2,3]triazolo[4,5-d]pyrimidin-3-yl)methyl]-2-methylphenylsulfamic acid]
- Ki [3]: ≤ 100 nM
- A2A/A1 selectivity ratio (Ki A2A/Ki A1) [3]: H (more than 20)
- Ki [4]: 100 to 1000 nM

SMILES: COc1cc(Cn2nnc3c(-c4ccc(C)o4)nc(N)nc32)ccc1NS(=O)(=O)O [4-[(5-amino-7-(5-methylfuran-2-yl)-3H-[1,2,3]triazolo[4,5-d]pyrimidin-3-yl)methyl]-2-methoxyphenylsulfamic acid]
- Ki [3]: ≤ 100 nM
- A2A/A1 selectivity ratio (Ki A2A/Ki A1) [3]: H (more than 20)
- Ki [4]: 100 to 1000 nM

SMILES: COc1cc(Cn2nnc3c(-c4cccs4)nc(N)nc32)ccc1NS(=O)(=O)O [4-[(5-amino-7-(thiophen-2-yl)-3H-[1,2,3]triazolo[4,5-d]pyrimidin-3-yl)methyl]-2-methoxyphenylsulfamic acid]
- Ki [3]: 100 to 1000 nM
- A2A/A1 selectivity ratio (Ki A2A/Ki A1) [3]: H (more than 20)
- Ki [4]: 1000 to 10000 nM
